Columns and labels:
Assay in all cases: Test C pre/postemergence
Type in all cases: in vivo
[1] = system: Surinam grass (Brachiaria decumbens); details: Preemergence
Outline: (§1)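 Greenhouse pot test: seeds treated preemergence, or plants at 2–18 cm (1- to 4-leaf stage) treated postemergence, with compound in non-phytotoxic solvent plus surfactant. Visual rating versus untreated controls after 12–14 days, scale 0 (no effect) to 100 (complete control); dash means not tested.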

[2] = system: bermudagrass (Cynodon dactylon); details: Preemergence
Outline: as §1

[3] = system: common (oilseed) sunflower (Helianthus annuus); details: Preemergence
Outline: as §1

[4] = system: crabgrass (Digitaria sanguinalis); details: Preemergence
Outline: as §1

[5] = system: giant foxtail (Setaria faberii); details: Preemergence
Outline: as §1

[6] = system: goosegrass (Eleusine indica); details: Preemergence
Outline: as §1

[7] = system: johnsongrass (Sorghum halepense); details: Preemergence
Outline: as §1

kochia (Kochia scoparia) = details: Preemergence, scale 0 to 100
Outline: as §1

[8] = system: morningglory (Ipomoea coccinea); details: Preemergence
Outline: as §1

[9] = system: pigweed (Amaranthus retroflexus); details: Preemergence
Outline: as §1

soybean (Glycine max) = details: Preemergence
Outline: as §1

[10] = system: woolly cupgrass (Eriochloa villosa); details: Preemergence
Outline: as §1

[11] = 62 g ai/ha, scale 0 to 100, 0 no effect, 100 complete control

CCOC(=O)Cc1nc(C2CC2)nc(N=CN(C)C)c1Br [Compound 33]
Plant response rating, Surinam Grass [1, 11]: 0
Plant response rating, Surinam Grass ([1]; 125 g ai/ha, scale 0 to 100): 0
Plant response rating, Surinam Grass ([1]; 250 g ai/ha, scale 0 to 100): 0
Plant response rating, Surinam Grass ([1]; 500 g ai/ha, scale 0 to 100): 10
Plant response rating, Bermudagrass [2, 11]: 0
Plant response rating, Bermudagrass ([2]; 125 g ai/ha, scale 0 to 100): 0
Plant response rating, Bermudagrass ([2]; 250 g ai/ha, scale 0 to 100): 0
Plant response rating, Bermudagrass ([2]; 500 g ai/ha, scale 0 to 100): 0
Plant response rating, Sunflower [3, 11]: 0
Plant response rating, Sunflower ([3]; 125 g ai/ha, scale 0 to 100): 70
Plant response rating, Sunflower ([3]; 250 g ai/ha, scale 0 to 100): 80
Plant response rating, Sunflower ([3]; 500 g ai/ha, scale 0 to 100): 90
Plant response rating, Crabgrass [4, 11]: 0
Plant response rating, Crabgrass ([4]; 125 g ai/ha, scale 0 to 100): 20
Plant response rating, Crabgrass ([4]; 250 g ai/ha, scale 0 to 100): 100
Plant response rating, Crabgrass ([4]; 500 g ai/ha, scale 0 to 100): 100
Plant response rating, Foxtail, Giant [5, 11]: 0
Plant response rating, Foxtail, Giant ([5]; 125 g ai/ha, scale 0 to 100): 10
Plant response rating, Foxtail, Giant ([5]; 250 g ai/ha, scale 0 to 100): 50
Plant response rating, Foxtail, Giant ([5]; 500 g ai/ha, scale 0 to 100): 50
Plant response rating, Goosegrass [6, 11]: 0
Plant response rating, Goosegrass ([6]; 125 g ai/ha, scale 0 to 100): 0
Plant response rating, Goosegrass ([6]; 250 g ai/ha, scale 0 to 100): 0
Plant response rating, Goosegrass ([6]; 500 g ai/ha, scale 0 to 100): 0
Plant response rating, Johnsongrass [7, 11]: 0
Plant response rating, Johnsongrass ([7]; 125 g ai/ha, scale 0 to 100): 5
Plant response rating, Johnsongrass ([7]; 250 g ai/ha, scale 0 to 100): 10
Plant response rating, Johnsongrass ([7]; 500 g ai/ha, scale 0 to 100): 40
Plant response rating, Kochia (kochia (Kochia scoparia); 250 g ai/ha): 50
Plant response rating, Kochia (kochia (Kochia scoparia); 500 g ai/ha): 50
Plant response rating, Morningglory [8, 11]: 0
Plant response rating, Morningglory ([8]; 125 g ai/ha, scale 0 to 100): 85
Plant response rating, Morningglory ([8]; 250 g ai/ha, scale 0 to 100): 90
Plant response rating, Morningglory ([8]; 500 g ai/ha, scale 0 to 100): 95
Plant response rating, Pigweed [9, 11]: 85
Plant response rating, Pigweed ([9]; 125 g ai/ha, scale 0 to 100): 90
Plant response rating, Pigweed ([9]; 250 g ai/ha, scale 0 to 100): 90
Plant response rating, Pigweed ([9]; 500 g ai/ha, scale 0 to 100): 90
Plant response rating, Soybean (soybean (Glycine max); [11]): 0
Plant response rating, Soybean (soybean (Glycine max); 125 g ai/ha, scale 0 to 100): 30
Plant response rating, Soybean (soybean (Glycine max); 250 g ai/ha, scale 0 to 100): 80
Plant response rating, Soybean (soybean (Glycine max); 500 g ai/ha, scale 0 to 100): 90
Plant response rating, Cupgrass, Woolly [10, 11]: 0
Plant response rating, Cupgrass, Woolly ([10]; 125 g ai/ha, scale 0 to 100): 0
Plant response rating, Cupgrass, Woolly ([10]; 250 g ai/ha, scale 0 to 100): 0
Plant response rating, Cupgrass, Woolly ([10]; 500 g ai/ha, scale 0 to 100): 0

From patent publication US8802597B2, “Herbicidal pyrimidines” (E I du Pont de Nemours and Company, priority 2003, dated 2014)
